Test results published in publication PMC7483518, “Destabilizing single chain major histocompatibility complex class I protein for repurposed enterokinase proteolysis” (Scientific Reports, 2020).
Several values for one entry are separate records, joined by “and”; a condition that tells them apart may be missing. Equal values may be shown once. Read-outs that look alike come from different tables or passages of the source.

What was measured:
[1] = tested on: HLA-A*11:01 single chain protein; assay type: biochemical, Human; design: EZ50kDa / EZ50kD (pH 6.2) / EZ50kD (pH 8) / EZ50kD (normalised: EBV1101 = 1, EBV0201 = 0) / EZ50kDa rank: unit not given beside the values; conditions: for vol: mean Adj. Volume of the 2 replicates; for Batch Mean: mean of the 2 replicates of EZ50kD; for EZ50kDa: Table 3, EGFR peptide library (n = 177, duplicated), pH 6.2, 37 °C, 14 h, enterokinase, Eq. (4);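 as to EZ50kDa: intact 50 kDa band volume scaled with positive control peptide as 1 and negative as 0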
[2] = molecular target: photolabile unchained HLA-A*11:01 pMHC-I protein (Homo sapiens, UniProt P04439, A114D/D185E/E176A/F33Y/L180Q/S129P/T187R); assay: ELISA with photolabile unchained pMHC-I protein and UV irradiation; assay type: binding
[3] = molecular target: T1, photo-labile unchained HLA-A*11:01 MHC-I protein (Homo sapiens, UniProt P04439, A114D/D185E/E176A/F33Y/L180Q/S129P/T187R); assay: Photo-labile unchained MHC-I protein treated with UV, peptides and enterokinase (SDS-PAGE band volume); assay type: biochemical; conditions: for vol: mean Adj. Volume of the 2 replicates; for Batch Mean: mean of the 2 replicates of EZ50kD
T1 construct: made in house

[4] = EGFR mutation peptide library and control peptides, HLA-A*11:01, mean, STDEV
[5] = EASY MHC-I A*11:01, run 2019-08-08, 5min, mean of 2 replicates

| Sequence | vol [1] | Batch Mean [1] | EASY_mean [2] | vol [3] | Batch Mean [3] | EZ_mean [1] | EZ50kDa [1] | other results |
| --- | --- | --- | --- | --- | --- | --- | --- | --- |
| FGSLLDYVREHK [CS1048] | 7729416 | 0.09362 | 0.1889 | 12972708 | 0.7597 | – | – | – |
| GSLLDYVREHK [CS1037] | 11854307 | 0.2216 | 0.5397 | 9517473 | -1.196 | 0.3673 | 0.367 ± 0.022 | – |
| MQLMPFGCLLDY [TM1050] | 8153341 | 0.1072 | 0.2124 | 5027054 | -0.2574 | 0.09599 | 0.0956 ± 0.004 | – |
| QLMPFGSLLDY [CS1032] | 30217126 | 0.787 | – | 11215354 | -0.05053 | 0.8691 | 0.869 ± 0.174 | Norm_mean [1]: 1.167; EASY_mean [2, 4]: 0.7325 |
| SLLDYVREH [CS1017] | 26057980 | 0.6595 | 0.4725 | 10431446 | -0.3978 | – | 0.733 ± 0.140 | EZ_mean ([1]; EASY MHC-I A*11:01, 2019-08-01, mean of the 2 replicates): 0.7333; EZ MHC-I stability with HLA-A*11:01 single chain protein ([1]; Fig. 2f,g, EGFR peptide library): strongly stabilizing |
| SLLDYVREHK [CS1027] | 29201845 | 0.7556 | – | 11075589 | -1.466 | 0.9134 | 0.811 ± 0.171 | Norm_mean [1]: 1.317; EASY_mean [2, 4]: 0.7046 |
| SLLDYVREHKDN [CS1050] | 7574013 | 0.08881 | 0.2031 | 12012525 | -2.24 | – | 0.0255 ± 0.005 | – |
| VAIKTSPKANK [EX1018, EGFR exon 19 deletion-derived peptide] | 9218005 | 0.1404 | – | 8041509 | 0.2261 | – | 0.2 and 0.222 ± 0.010 | EZ_mean ([1]; EASY MHC-I A*11:01, 2019-07-26, mean of the 2 replicates): 0.2216; EASY_mean ([2]; […], mean, STDEV): 0.2323 |
| VQLIMQLM [TM1004] | – | – | – | – | – | – | – | EZ_mean ([1]; EASY MHC-I A*11:01, run 2019-08-06, 5min, mean of 2 replicates): -0.1305; EASY_mean ([2]; […], mean, STDEV): -0.05004 |
| VQLIMQLMP [TM1013] | – | – | – | – | – | – | – | EZ_mean ([1]; EASY MHC-I A*11:01, run 2019-08-07, 5min, mean of 2 replicates): -0.1096; EASY_mean ([2]; […], mean, STDEV): -0.03636 |
| VQLIMQLMPF [TM1023] | – | – | – | – | – | – | – | EZ_mean [1, 5]: -0.03531; Norm_mean [1, 5]: -0.02177; EASY_mean ([2]; […], mean, STDEV): -0.02163 |
| VQLIMQLMPFG [TM1034] | – | – | – | – | – | -0.1329 | – | EASY_mean ([2]; ELISA signal, mean, […]): -0.07888 |
| VQLIMQLMPFGC [TM1045] | – | – | – | – | – | -0.1164 | – | EASY_mean ([2]; ELISA signal, mean, […]): -0.05081 |
| VQLITQLMPFGS [CS1039] | – | – | -0.02003 | – | – | -0.04039 | – | – |
